In patent publication US4751217A, “Physiologically active substances named SEN-366” (Nippon Shinyaku Co., Ltd., priority 1984, dated 1988):
In brackets after ≈: the same amount, converted by molar mass. Entries after “also recorded” stand apart in the source; their conditions may differ. Values belong to the molecule of their own block, whether it stands above or below them.

Columns and labels:
[1] = system: platelet aggregation (ADP); assay: Inhibitory action against platelet aggregation, inducer ADP; format: cell-based; details: for IC50: Oryctolagus cuniculus, Platelet, ADP 5 μM, rabbit PRP
Description: (§1) Inhibitory Action against Platelet Aggregation:
(§2) (1) Materials and Method:
(§3) The sample is tested after dissolved in dimethyl sulfoxide. The preparation is conducted so as to make the final concentration of the solvent 1%. Dimethyl sulfoxide of the same concentration is used as a control. As to inducers for platelet aggregation, ADP (final concentration: 5 μm), AA (arachidonic acid) (final concentration: 150 μM) and collagen (final concentration: 10 μg/ml) are used.
(§4) (2) Preparation of platelet:
(§5) Blood is taken from total neck artery of male rabbits of 2.0-2.5 kg body weight. To the blood is added 1/10 volume of 3.8% sodium citrate solution, the mixture is gently stirred, centrifuged 1300×g for 2 minutes, and the resulting supernatant liquid is used as plasma with abundant platelet (hereinafter abbreviated as PRP). The precipitate is further centrifuged at 1600×g for 10 minutes and the resulting supernatant liquid is used as plasma with poor platelet (hereinafter abbreviated as PPP).
(§6) (3) Method for Measuring Aggregation Power:
(§7) A measuring apparatus for platelet aggregation is used and the changes in absorbancy by the aggregation with an elapse of time are recorded.
(§8) Thus, 200 microliters of PRP is taken, its difference between PPP is adjusted to a certain value, then 25 microliters of control solution or test solution is added, the mixture is stirred (1000 rpm) for 1 minutes, 25 microliters of aggregation inducer is added, and the changes in absorbancy are recorded. The inhibitory ratio is calculated from the following expression from the maximum aggregation ratio of the control (A in %) and that of the test solution (B in %): [formula]
(§9) Inhibitory ratios with varied test solution concentrations are calculated and the IC50 (50% inhibitory concentration) is calculated therefrom.
as §3, with “μM),” for “μm),”
as §5, with “citric acid” for “sodium citrate”
as §8, with “minute,” for “minutes,”

[2] = system: platelet aggregation (AA); assay: Inhibitory action against platelet aggregation, inducer arachidonic acid (AA); format: cell-based; details: for IC50: Oryctolagus cuniculus, Platelet, AA 150 μM, rabbit PRP
Description: as §1, §2, §3, §4, §5, §6, §7, §8, §9
as §3, with “μM),” for “μm),”
as §5, with “citric acid” for “sodium citrate”
as §8, with “minute,” for “minutes,”

[3] = system: platelet aggregation (collagen); assay: Inhibitory action against platelet aggregation, inducer collagen; format: cell-based; details: for IC50: Oryctolagus cuniculus, Platelet, collagen 10 μg/ml, rabbit PRP
Description: as §1, §2, §3, §4
Blood is taken from total neck artery of male rabbits of 2.0-2.5 kg body weight. […] The precipitate is further centrifuged at 1600×g for 10 minutes and the resulting supernatant liquid is used as plasma with poor platelet (hereinafter abbreviated as PPP).
as §6, §7, §8
as §3, with “μM),” for “μm),”
as §5, with “citric acid” for “sodium citrate”
as §8, with “minute,” for “minutes,”

Solubility = format: physicochemical; details: qualitative, in named solvents
[4] = Table 1, rabbit PRP, listed as BT3
[5] = Table 1, rabbit PRP, listed as BT1
[6] = Table 2, rabbit PRP, listed as CB3
[7] = Table 2, rabbit PRP, listed as M3
[8] = Table 1, rabbit PRP, listed as A4
[9] = Table 2, rabbit PRP, listed as CB4
[10] = Table 1, rabbit PRP, listed as BT4

SMILES: CC1OC(OC2CCC(OC3CCC(OC(=O)c4ccccc4)OC3C)OC2C)C=CC1=O (stereo not shown) [SEN-366-B1]
IC50 ([1]; Table 1): 1.1 µg/mL (≈ 2.39 µM)
IC50 ([2]; Table 1): 0.32 µg/mL (≈ 0.695 µM)
IC50 ([3]; Table 1): 0.16 µg/mL (≈ 0.347 µM)

SMILES: COC1CCC(OC2CCC(OC3C=CC(=O)C(C)O3)C(C)O2)C(C)O1 (stereo not shown) [SEN-366-M1]
IC50 ([1]; Table 2): 17 µg/mL (≈ 45.9 µM)
IC50 ([2]; Table 2): 29 µg/mL (≈ 78.3 µM)
IC50 ([3]; Table 2): 5.5 µg/mL (≈ 14.8 µM)

SMILES: CCCC(=O)OC1CCC(OC2CCC(OC3C=CC(=O)C(C)O3)C(C)O2)C(C)O1 (stereo not shown) [SEN-366-BT1]
IC50 ADP 5 μM [1, 5]: 1.1 µg/mL (≈ 2.58 µM)
IC50 AA 150 μM [2, 5]: 1.55 µg/mL (≈ 3.63 µM)
IC50 ([3]; Table 1): 0.17 µg/mL (≈ 0.399 µM)

SMILES: CC1OC(OC2CCC(OC3CCC(OC(=O)c4ccc(Cl)cc4)OC3C)OC2C)C=CC1=O (stereo not shown) [SEN-366-CB3]
IC50 ADP 5 μM [1, 6]: 0.29 µg/mL (≈ 0.586 µM)
IC50 AA 150 μM [2, 6]: 0.68 µg/mL (≈ 1.37 µM)
IC50 Collagen 10 μg/ml [3, 6]: 0.053 µg/mL (≈ 0.107 µM)

SMILES: CC1OC(OC2CCC(OC3CCC(O)OC3C)OC2C)C(O)CC1=O (stereo not shown) [SEN-366-P]
IC50 ([1]; Table 1): 4.4 µg/mL (≈ 11.8 µM)
Solubility (Solubility): Soluble in water, methanol, ethanol, chloroform, acetone and ethyl acetate; also recorded: hardly soluble in petroleum ether and n-hexane
IC50 ([2]; Table 1): 25 µg/mL (≈ 66.8 µM)
IC50 ([3]; Table 1): 1.6 µg/mL (≈ 4.27 µM)

SMILES: CC1OC(OC2CCC(O)OC2C)C=CC1=O (stereo not shown) [SEN-366-F0]
IC50 ([1]; Table 3): 9.3 µg/mL (≈ 38.4 µM)
IC50 ([2]; Table 3): 3.4 µg/mL (≈ 14 µM)
IC50 ([3]; Table 3): 1.5 µg/mL (≈ 6.19 µM)

SMILES: CCCC(=O)OC1CCC(OC2CCC(OC3CCC(=O)C(C)O3)C(C)O2)C(C)O1 (stereo not shown) [SEN-366-BT4]
IC50 ADP 5 μM [1, 10]: 5.3 µg/mL (≈ 12.4 µM)
IC50 AA 150 μM [2, 10]: 5.7 µg/mL (≈ 13.3 µM)
IC50 Collagen 10 μg/ml [3, 10]: 1.6 µg/mL (≈ 3.73 µM)

The remaining lines, values ahead:

IC50 ADP 5 μM [1, 4]: 0.47 µg/mL (≈ 1.1 µM)
IC50 AA 150 μM [2, 4]: 0.64 µg/mL (≈ 1.5 µM)
IC50 Collagen 10 μg/ml [3, 4]: 0.16 µg/mL (≈ 0.375 µM)
SMILES: CCCC(=O)OC1CCC(OC2CCC(OC3C=CC(=O)C(C)O3)C(C)O2)C(C)O1 (stereo not shown) [SEN-366-BT3]

IC50 ADP 5 μM [1, 7]: 15.0 µg/mL (≈ 40.5 µM)
IC50 AA 150 μM [2, 7]: 25.0 µg/mL (≈ 67.5 µM)
IC50 Collagen 10 μg/ml [3, 7]: 5.2 µg/mL (≈ 14 µM)
SMILES: COC1CCC(OC2CCC(OC3C=CC(=O)C(C)O3)C(C)O2)C(C)O1 (stereo not shown) [SEN-366-M3]

IC50 ([1]; Table 2): 3.2 µg/mL (≈ 6.44 µM)
IC50 ([2]; Table 2): 6.2 µg/mL (≈ 12.5 µM)
IC50 ([3]; Table 2): 1 µg/mL (≈ 2.01 µM)
SMILES: CC1OC(OC2CCC(OC3CCC(OC(=O)c4ccc(Cl)cc4)OC3C)OC2C)CCC1=O (stereo not shown) [SEN-366-CB2]

IC50 ([1]; Table 2): 12 µg/mL (≈ 33.9 µM)
IC50 ([2]; Table 2): 27 µg/mL (≈ 76.2 µM)
IC50 ([3]; Table 2): 5 µg/mL (≈ 14.1 µM)
SMILES: CC1OC(OC2CCC(OC3CCC(=O)OC3C)OC2C)C=CC1=O (stereo not shown) [SEN-366-L1]

IC50 ADP 5 μM [1, 8]: > 10 µg/mL
IC50 AA 150 μM [2, 8]: 5.4 µg/mL (≈ 13.5 µM)
IC50 Collagen 10 μg/ml [3, 8]: 0.27 µg/mL (≈ 0.674 µM)
SMILES: CC(=O)OC1CCC(OC2CCC(OC3CCC(=O)C(C)O3)C(C)O2)C(C)O1 (stereo not shown) [SEN-366-A4]

IC50 ADP 5 μM [1, 9]: 4.2 µg/mL (≈ 8.45 µM)
IC50 AA 150 μM [2, 9]: > 5 µg/mL
IC50 Collagen 10 μg/ml [3, 9]: 1.7 µg/mL (≈ 3.42 µM)
SMILES: CC1OC(OC2CCC(OC3CCC(OC(=O)c4ccc(Cl)cc4)OC3C)OC2C)CCC1=O (stereo not shown) [SEN-366-CB4]
